Laboratory results reported in paper PMC8151276, “An Integrated Approach toward NanoBRET Tracers for Analysis of GPCR Ligand Engagement” (Molecules, 2021).

Target: T1, OPRD1 (Homo sapiens, UniProt P41143)
T1 construct: purchased Promega (in-house HiBiT-GPCR construct library, NanoBRET)
Test: NanoBRET screen HiBiT-OPRD1 in HEK293
Type: binding
Experimental: Each tracer candidate was screened across the entire library of HiBiT-GPCR constructs using NanoBRET as the detection modality. As depicted in Figure 4A, the specificity of interactions was evaluated through decrease in BRET due to competitive displacement of a bound tracer by excess parental compound. Each tracer was analyzed for binding to each HiBiT-GPCR fusion in the absence and in the presence of competing parental compound. Briefly, HEK293 cells were transfected with HiBiT-GPCR constructs diluted into promoterless DNA to reduce expression and maximize translocation to the cell surface. Each tracer candidate was then screened at concentrations of 1 μM and 0.1 μM across cells expressing these fusions. Cells were treated for 1.5 h with tracer either alone or in the presence of 20 μM competing parental compound (i.e., control). BRET was measured upon addition of purified LgBiT and subsequent complementation with HiBiT genetically fused to a GPCR. The specificity of interactions was assessed through a decrease in BRET signal due to competitive displacement of the bound tracer. To further gauge the robustness of these interactions, the fold response over the control (i.e., BRETtracer/BRETcontrol) was calculated. We chose a 1.5-fold response, which translates to ≥7-fold signal over noise as the minimal threshold required to score an interaction as positive.
HiBiT-GPCR DNA constructs were diluted in 10 mM Tris pH 8 to a final concentration of 0.01 μg/μL, arrayed in 96-well plates and stored at −20 °C. For transfection, HEK293 cells were suspended in Opti-MEM (without phenol red) supplemented with 2% fetal bovine serum (Seradigm) and 100 units/mL penicillin–streptomycin (Gibco) at a final concentration of 220,000 cells/mL and dispensed into white 96-well plates at 90 μL/well. Subsequent transfections and screens were carried using an Agilent Bravo Automated Liquid Handling Platform. First, the 96-well HiBiT DNA arrays were diluted 25-fold in Opti-MEM (without serum or phenol red) to a final concentration of 0.0004 μg/μL and 20 μL of the diluted DNAs were transferred into new 96-well plates. Next, promoterless carrier DNA (1 μg/μL) was diluted 25-fold (0.04 μg/μL) and then dispensed into the diluted arrays at 20 μL/well. Following brief mixing, Viafect transfection reagent (Promega) diluted 16-fold into Opti-MEM was dispensed into the plates at 40 μL/well. After mixing by pipetting, plates were incubated for 10 min on the pipetting station deck. The DNA-transfection reagent complexes were then added to plates containing cells. To facilitate the screen, 10 μL of DNA-transfection reagent complexes were added in duplicates to the top 4 and bottom 4 rows, resulting in two identical 48-well arrays per plate. Plates with transfected cells were incubated for 18–20 h at 37 °C/5% CO2. A screen of each tracer across the entire library using two different concentrations requires duplicate plates of transfected cells. Depending on the number of tracers being screened, transfections can be scaled up using the same ratios. The next day, for each tracer, four 20× screening solutions in tracer dilution buffer (Promega) were prepared: two duplicates at final concentration of 20 μM and two duplicates at a final concentration of 2 μM. […] The four resulting solutions were diluted 4-fold in Opti-MEM without serum or phenol red to generate 5× solutions (5 µM and 0.5 µM tracer +/− 100 μM competing compound). To screen the library, a BioTek MultiFlo FX liquid dispenser was used to dispense 22.5 µL of tracer solution to the top 4 rows and 22.5 µL tracer + competing compound solution to the 4 bottom rows. Plates were briefly mixed on an orbital shaker and incubated for 1.5 h at room temperature. […] Plates were briefly mixed on an orbital shaker and incubated for 15 min to allow complementation.

T1 sequence (P41143 whole entry): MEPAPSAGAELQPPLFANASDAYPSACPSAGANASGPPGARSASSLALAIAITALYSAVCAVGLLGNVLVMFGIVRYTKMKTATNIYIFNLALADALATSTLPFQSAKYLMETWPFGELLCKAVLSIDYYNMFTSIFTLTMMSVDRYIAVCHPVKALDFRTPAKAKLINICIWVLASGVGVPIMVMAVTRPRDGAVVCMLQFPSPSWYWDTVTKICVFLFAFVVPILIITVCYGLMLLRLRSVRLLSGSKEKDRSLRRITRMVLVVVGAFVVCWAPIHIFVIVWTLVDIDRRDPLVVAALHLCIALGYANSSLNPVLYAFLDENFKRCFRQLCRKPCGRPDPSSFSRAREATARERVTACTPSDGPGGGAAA

CCOC(=O)c1cc(C#N)c(N2CCC(C(=O)NS(=O)(=O)Cc3ccccc3/C=C/C(=O)NCCNC(=O)CCc3ccc4n3[B-](F)(F)[N+]3=C(c5ccc[nH]5)C=CC3=C4)CC2)nc1C [AZD1283-1-NB590]
NanoBRET Fold Response (OPRD1, 0.1μM): 1.09
NanoBRET Fold Response (OPRD1, 1μM): 1.08

N#CN/C(=N\CCNC(=O)c1ccc(N)cc1)NCCCOc1cccc(CN2CCCCC2)c1 [Aminopotentidine (unmodified)]
NanoBRET Fold Response (OPRD1, other tracers/Aminopotentidine (unmodified), 0.1μM): 1.25
NanoBRET Fold Response (OPRD1, other tracers/Aminopotentidine (unmodified), 1μM): 1.01

N#CN=C(NCCCOc1cccc(CN2CCCCC2)c1)NCCNC(=O)CCOCCOCCOCCOCCNC(=O)CCc1ccc2n1[B-](F)(F)[N+]1=C(c3ccc[nH]3)C=CC1=C2 [Aminopotentidine-2-NB590]
NanoBRET Fold Response (OPRD1, tracer 0.1μM): 1.05
NanoBRET Fold Response (OPRD1, tracer 1μM): 1.02

CN(C)CCC=C1c2ccccc2CCc2ccc(C(=O)NCCNC(=O)CCOCCOCCOCCOCCNC(=O)CCc3ccc4n3[B-](F)(F)[N+]3=C(c5ccc[nH]5)C=CC3=C4)cc21 [Amitriptyline-a-2-NB590]
NanoBRET Fold Response (tracer at 0.1μM): 0.99
NanoBRET Fold Response (tracer at 1μM): 0.91

CN(C)CCC=C1c2ccccc2CCc2ccc(C(=O)NCCNC(=O)CCOCCOCCOCCOCCNC(=O)CCc3ccc4n3[B-](F)(F)[N+]3=C(c5ccc[nH]5)C=CC3=C4)cc21 [Amitriptyline-b-2-NB590]
NanoBRET Fold Response (tracer at 0.1μM, listed as amitriptyline-b-2-NB590): 1.01
NanoBRET Fold Response (tracer at 1μM, listed as amitriptyline-b-2-NB590): 1.01

CN(CCC=C1c2ccccc2CCc2ccccc21)C(=O)CCOCCOCCOCCOCCNC(=O)CCc1ccc2n1[B-](F)(F)[N+]1=C(c3ccc[nH]3)C=CC1=C2 [Amitriptyline-e-2-NB590]
NanoBRET Fold Response (tracer at 1μM): 1.01

COc1ccc2c(n1)c(CCNC(C)=O)cn2CCNC(=O)CCc1ccc2n1[B-](F)(F)[N+]1=C(c3ccc[nH]3)C=CC1=C2 [Azamelatonin-1-NB590]
NanoBRET Fold Response (0.1μM tracer): 1.00
NanoBRET Fold Response (1μM tracer): 1.00

COc1ccc2[nH]c(-c3ccc(CNC(=O)CCOCCOCCOCCOCCNC(=O)CCc4ccc5n4[B-](F)(F)[N+]4=C(c6ccc[nH]6)C=CC4=C5)cc3)c(CCNC(C)=O)c2n1 [AzomelatoninICO9-2-NB590]
NanoBRET Fold Response (0.1μM tracer): 1.06
NanoBRET Fold Response (1μM tracer): 1.03

O=C(CCOCCOCCOCCOCCNC(=O)CCc1ccc2n1[B-](F)(F)[N+]1=C(c3ccc[nH]3)C=CC1=C2)NCCCN1CCN(C2=Nc3cc(Cl)ccc3Nc3ccccc32)CC1 [Clozapine-a-2-NB590]
NanoBRET Fold Response (OPRD1, 0.1μM tracer): 1.04
NanoBRET Fold Response (OPRD1, 1μM tracer): 0.95

CN1CCN(C2=Nc3cc(Cl)ccc3Nc3ccc(CNC(=O)CCOCCOCCOCCOCCNC(=O)CCc4ccc5n4[B-](F)(F)[N+]4=C(c6ccc[nH]6)C=CC4=C5)cc32)CC1 [Clozapine-b-2-NB590]
NanoBRET Fold Response (OPRD1, 0.1μM tracer): 1.02
NanoBRET Fold Response (OPRD1, 1μM tracer): 0.99

CN1CCN(C2=Nc3cc(Cl)ccc3N(CC(=O)NCCOCCOCCOCCOCCNC(=O)CCc3ccc4n3[B-](F)(F)[N+]3=C(c5ccc[nH]5)C=CC3=C4)c3ccccc32)CC1 [Clozapine-c-2-NB590]
NanoBRET Fold Response (OPRD1, 0.1μM tracer): 0.99
NanoBRET Fold Response (OPRD1, 1μM tracer): 0.92

O=C(CCOCCOCCOCCOCCNC(=O)CCc1ccc2n1[B-](F)(F)[N+]1=C(c3ccc[nH]3)C=CC1=C2)NCCCN1CCN(C2=Nc3ccccc3Oc3ccc(Cl)cc32)CC1 [Loxapine-a-2-NB590]
NanoBRET Fold Response (OPRD1, tracer 0.1μM): 1.01
NanoBRET Fold Response (OPRD1, tracer 1μM): 1.04

COc1ccccc1N1CCN(CCCCN2C(=O)c3ccc(CNC(=O)CCOCCOCCOCCOCCNC(=O)CCc4ccc5n4[B-](F)(F)[N+]4=C(c6ccc[nH]6)C=CC4=C5)cc3C2=O)CC1 [NAN-190-2-NB590]
NanoBRET Fold Response (OPRD1, tracer 0.1μM): 0.98

COc1ccccc1N1CCN(CCCCN2C(=O)c3ccc(CNC(=O)CCOCCNC(=O)c4ccc(CNC(=O)CCc5ccc6n5[B-](F)(F)[N+]5=C(c7ccc[nH]7)C=CC5=C6)cc4)cc3C2=O)CC1 [NAN-190-3-NB590]
NanoBRET Fold Response (OPRD1, tracer 0.1μM): 0.79
NanoBRET Fold Response (OPRD1, tracer 1μM): 1.17

O=C(CCc1ccc2n1[B-](F)(F)[N+]1=C(c3ccc[nH]3)C=CC1=C2)NCc1ccc(C(=O)NCCOCCC(=O)N[C@@H]2CC[C@@]3(O)[C@H]4Cc5ccc(O)c6c5[C@@]3(CCN4CC3CC3)[C@H]2O6)cc1 [Naltrexone-3-NB590]
NanoBRET Fold Response (OPRD1, tracer 0.1μM): 1.81
NanoBRET Fold Response (OPRD1, tracer 1μM): 1.52

Cc1cc2c(s1)Nc1ccccc1N=C2N1CCN(CCCNC(=O)CCOCCOCCOCCOCCNC(=O)CCc2ccc3n2[B-](F)(F)[N+]2=C(c4ccc[nH]4)C=CC2=C3)CC1 [Olanzapine-a-2-NB590]
NanoBRET Fold Response (OPRD1, tracer 0.1μM): 0.95
NanoBRET Fold Response (OPRD1, tracer 1μM): 1.09

O=C(CCc1ccc2n1[B-](F)(F)[N+]1=C(c3ccc[nH]3)C=CC1=C2)NCc1ccc(C(=O)NCCOCCOCCNCC(O)COc2cccc3ccccc23)cc1 (stereo not drawn) [Propranolol-3-NB590]
NanoBRET Fold Response (OPRD1, 0.1μM): 0.97
NanoBRET Fold Response (OPRD1, 1μM): 1.01

O=C(CCc1ccc2n1[B-](F)(F)[N+]1=C(c3ccc[nH]3)C=CC1=C2)NCCOCCOCCNC(=O)OCCOCCN1CCN(C2=Nc3ccccc3Sc3ccccc32)CC1 [Quetiapine-a-2-NB590]
NanoBRET Fold Response (OPRD1, tracer 0.1μM): 1.11
NanoBRET Fold Response (OPRD1, tracer 1μM): 0.89

Cc1nc2n(c(=O)c1CCN1CCC(c3noc4cc(F)ccc34)CC1)CCCC2OC(=O)NCCOCCOCCOCCOCCNC(=O)CCc1ccc2n1[B-](F)(F)[N+]1=C(c3ccc[nH]3)C=CC1=C2 (stereo not drawn) [Risperidone-2-NB590]
NanoBRET Fold Response (OPRD1, tracer 0.1μM): 0.99
NanoBRET Fold Response (OPRD1, tracer 1μM): 0.99

CC(C)N(CC[C@H](c1ccccc1)c1cc(CCNC(=O)CCOCCOCCOCCOCCNC(=O)CCc2ccc3n2[B-](F)(F)[N+]2=C(c4ccc[nH]4)C=CC2=C3)ccc1O)C(C)C [Tolterodine-2-NB590]
NanoBRET Fold Response (OPRD1, tracer 0.1μM): 1.00
NanoBRET Fold Response (OPRD1, tracer 1μM): 0.94

CC(C)N(CC[C@H](c1ccccc1)c1cc(CCNC(=O)c2ccc(CNC(=O)CCc3ccc4n3[B-](F)(F)[N+]3=C(c5ccc[nH]5)C=CC3=C4)cc2)ccc1O)C(C)C [Tolterodine-BZ-NB590]
NanoBRET Fold Response (OPRD1, tracer 0.1μM): 1.06
NanoBRET Fold Response (OPRD1, tracer 1μM): 1.05

CCCn1c(=O)c2[nH]c(-c3ccc(OCC(=O)NCCNC(=O)CCOCCNC(=O)c4ccc(CNC(=O)CCc5ccc6n5[B-](F)(F)[N+]5=C(c7ccc[nH]7)C=CC5=C6)cc4)cc3)nc2n(CCC)c1=O [XAC-3-NB590]
NanoBRET Fold Response (OPRD1, tracer 0.1μM): 0.97
NanoBRET Fold Response (OPRD1, tracer 1μM): 0.81
